Reference: PMC5802278, “Molecular and cellular mechanisms of HIF prolyl hydroxylase inhibitors in clinical trials” (Chemical Science, 2017)
Read-outs that look alike come from different tables or passages of the source.

What was measured:
[1] = target: T1, OGFOD1 (Homo sapiens, UniProt Q8N543); assay: MALDI-TOF MS OGFOD1 hydroxylation assay; assay type: biochemical
T1 construct: made in house
T1 sequence (Q8N543 1-542): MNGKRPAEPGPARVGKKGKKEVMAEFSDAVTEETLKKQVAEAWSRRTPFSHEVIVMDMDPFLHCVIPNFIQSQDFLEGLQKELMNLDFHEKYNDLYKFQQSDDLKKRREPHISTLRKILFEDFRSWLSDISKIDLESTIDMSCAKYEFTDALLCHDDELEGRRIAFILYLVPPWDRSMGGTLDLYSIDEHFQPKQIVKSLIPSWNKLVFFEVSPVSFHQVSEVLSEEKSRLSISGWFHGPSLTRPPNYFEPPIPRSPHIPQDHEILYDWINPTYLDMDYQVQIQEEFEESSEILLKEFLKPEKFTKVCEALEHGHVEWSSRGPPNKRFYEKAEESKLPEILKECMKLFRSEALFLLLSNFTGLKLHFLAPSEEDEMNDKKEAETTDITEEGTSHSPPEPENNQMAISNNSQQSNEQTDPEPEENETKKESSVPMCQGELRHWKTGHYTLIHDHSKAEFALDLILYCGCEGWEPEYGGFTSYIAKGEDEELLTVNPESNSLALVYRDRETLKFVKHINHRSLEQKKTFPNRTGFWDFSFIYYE
Protocol: MALDI-TOF MS OGFOD1 hydroxylation assays
Recombinant human OGFOD1 was prepared as reported,11 and stored at -80 °C in 50 mM HEPES (pH 7.5), 150 mM NaCl, 1 mM DTT and 5% (w/v) glycerol after purification with immobilized metal affinity chromatography. Activity assays were performed by determining the extent of hydroxylation of a 20-residue fragment of human RPS23 containing amino acid […]
residues 51-70 (H2N-[…]-CONH2) by matrix-assisted laser desorption/ionisation time-of-flight mass spectrometry (MALDI-TOF MS) using a Waters® Micromass® MALDI micro MX™ mass spectrometer and MassLynx™ 4.1 as described 12.
The optimised hydroxylation assay involved incubation of OGFOD1 (1 μM) with inhibitor (1 % v/v in DMSO) in the presence of Fe(II) (50 μM), 2OG (25 μM), L-ascorbic acid (100 μM) and RPS2351-70 (25 μM) in HEPES (50 mM, pH 7.5) at 37 °C for 15 min. Reagent solution were made as previously reported. (64) Reactions were quenched with formic acid (1 % v/v).
Samples were prepared by mixing reaction mixture (1 μL) with α-cyano-4-hydrocinnamic acid (CHCA) solution (water:acetonitrile 1:1) (1 μL). Dose-response was assessed in 8-point triplicates. Data were analysed using GraphPad Prism 5.04. […]
Fig. S12. In vitro OGFOD1 selectivity profiling of PHD inhibitors. Inhibition of PHD inhibitors against human OGFOD1 as assayed by MALDI11,13 -TOF MS (the protocol is described in the Supplemental Materials and Methods section). No enzyme and DMSO controls were used for the normalisation of RPS23 peptide hydroxylation. Eight concentrations were used to obtained dose-response curve for each compound. Data points presented in the graph are means with standard deviation, n=3. IC50 values (listed in Table 2) were calculated using GraphPad […]
(1 picture or pasted object on this page, not shown here)

[2] = target: T2, JARID1A (KDM5A) (Homo sapiens, UniProt P29375); assay: AlphaScreen histone demethylase assay; assay type: biochemical
T2 sequence (P29375 12-797 limits assumed): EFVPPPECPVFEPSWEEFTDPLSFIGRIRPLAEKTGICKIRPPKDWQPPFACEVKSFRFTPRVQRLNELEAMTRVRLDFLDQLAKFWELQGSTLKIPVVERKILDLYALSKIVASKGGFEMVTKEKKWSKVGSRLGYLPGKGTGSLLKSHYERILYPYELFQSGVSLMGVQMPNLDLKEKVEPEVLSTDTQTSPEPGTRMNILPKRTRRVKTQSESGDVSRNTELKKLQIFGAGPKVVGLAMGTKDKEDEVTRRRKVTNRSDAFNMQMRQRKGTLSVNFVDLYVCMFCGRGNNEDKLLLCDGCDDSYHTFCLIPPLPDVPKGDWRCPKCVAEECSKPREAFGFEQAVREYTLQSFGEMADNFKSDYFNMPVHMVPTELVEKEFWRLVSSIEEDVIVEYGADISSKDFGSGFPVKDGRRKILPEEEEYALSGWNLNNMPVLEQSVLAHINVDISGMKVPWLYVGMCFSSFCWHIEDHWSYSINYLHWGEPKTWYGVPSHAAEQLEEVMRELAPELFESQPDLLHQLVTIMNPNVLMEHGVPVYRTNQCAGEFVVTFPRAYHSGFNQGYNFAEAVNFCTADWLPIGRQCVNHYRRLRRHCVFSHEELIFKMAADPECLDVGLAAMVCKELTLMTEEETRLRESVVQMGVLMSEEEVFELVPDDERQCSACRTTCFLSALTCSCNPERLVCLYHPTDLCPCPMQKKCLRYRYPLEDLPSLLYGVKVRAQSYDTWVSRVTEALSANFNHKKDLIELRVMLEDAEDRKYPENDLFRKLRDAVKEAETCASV

[3] = target: JARID1C (KDM5C) (Homo sapiens, UniProt P41229); assay: AlphaScreen histone demethylase assay; assay type: biochemical
Chain of JARID1C (KDM5C) (P41229 whole entry): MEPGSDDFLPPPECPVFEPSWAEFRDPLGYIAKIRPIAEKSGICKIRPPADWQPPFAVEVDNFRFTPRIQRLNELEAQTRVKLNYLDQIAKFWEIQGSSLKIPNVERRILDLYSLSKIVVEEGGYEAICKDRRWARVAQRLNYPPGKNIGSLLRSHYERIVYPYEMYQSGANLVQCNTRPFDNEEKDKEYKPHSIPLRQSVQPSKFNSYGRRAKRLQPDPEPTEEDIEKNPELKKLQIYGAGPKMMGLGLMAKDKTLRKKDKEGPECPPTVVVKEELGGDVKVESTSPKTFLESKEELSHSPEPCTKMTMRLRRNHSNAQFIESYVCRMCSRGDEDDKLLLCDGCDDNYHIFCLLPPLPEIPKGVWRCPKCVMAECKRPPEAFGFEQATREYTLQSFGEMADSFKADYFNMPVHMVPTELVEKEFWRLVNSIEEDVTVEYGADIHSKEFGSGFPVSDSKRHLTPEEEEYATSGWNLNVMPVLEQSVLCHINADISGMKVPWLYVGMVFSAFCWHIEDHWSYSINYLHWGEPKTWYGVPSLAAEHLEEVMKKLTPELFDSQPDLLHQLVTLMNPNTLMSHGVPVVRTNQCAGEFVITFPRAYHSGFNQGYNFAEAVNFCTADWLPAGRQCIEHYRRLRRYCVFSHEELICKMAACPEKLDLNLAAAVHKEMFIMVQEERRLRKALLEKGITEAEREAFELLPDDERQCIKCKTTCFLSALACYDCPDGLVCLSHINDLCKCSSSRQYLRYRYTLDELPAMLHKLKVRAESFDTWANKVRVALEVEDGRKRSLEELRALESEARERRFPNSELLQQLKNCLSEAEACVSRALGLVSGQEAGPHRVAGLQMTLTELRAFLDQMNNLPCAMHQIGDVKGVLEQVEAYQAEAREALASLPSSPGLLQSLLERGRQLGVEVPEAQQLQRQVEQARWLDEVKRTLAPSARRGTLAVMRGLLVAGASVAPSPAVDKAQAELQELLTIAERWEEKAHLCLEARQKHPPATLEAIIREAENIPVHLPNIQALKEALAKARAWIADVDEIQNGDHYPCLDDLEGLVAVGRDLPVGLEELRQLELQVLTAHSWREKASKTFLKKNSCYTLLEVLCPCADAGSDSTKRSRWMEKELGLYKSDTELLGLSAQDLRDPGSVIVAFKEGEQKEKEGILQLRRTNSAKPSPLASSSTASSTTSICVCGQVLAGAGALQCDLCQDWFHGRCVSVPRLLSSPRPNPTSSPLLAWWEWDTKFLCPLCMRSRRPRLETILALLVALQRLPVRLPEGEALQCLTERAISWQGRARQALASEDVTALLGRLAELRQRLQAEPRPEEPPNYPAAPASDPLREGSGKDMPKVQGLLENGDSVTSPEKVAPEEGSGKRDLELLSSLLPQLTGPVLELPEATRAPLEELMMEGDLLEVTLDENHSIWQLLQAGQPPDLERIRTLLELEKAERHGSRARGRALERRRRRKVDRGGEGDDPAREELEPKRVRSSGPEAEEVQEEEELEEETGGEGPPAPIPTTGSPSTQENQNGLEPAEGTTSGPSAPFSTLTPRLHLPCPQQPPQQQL

[4] = test system: HIF-1α and HIF-2α in Hep3b cells; assay: Immunoblotting of HIF-α stabilization in Hep3b cells; assay type: cell-based, human
Protocol: We then investigated potential time dependent effects of the inhibitors on HIF-α stabilization in Hep3b cells (Fig. 5A). […]
Cell Culture and Immunoblotting
HeLa and RCC4 cells were cultured in Dulbecco’s Modified Eagle’s Medium (DMEM; Sigma Aldrich D6546-500ML) supplemented with 10% fetal bovine serum (Sigma Aldrich F7524-500ML), 4 mM L-glutamine (Sigma Aldrich G7513- 100ML), 50 U/mL penicillin, and 50 μg/mL streptomycin (Sigma Aldrich P0781-100ML). Cells were seeded to reach 90-100% confluency prior to compound treatment. Cells were exposed to the inhibitor at a final concentration of 1% DMSO for 5-6 hours. For Fe(II) titration in the presence of inhibitors, […]
Cells were harvested in urea/SDS buffer (6.7 M urea, 10 mM Tris-Cl pH 6.8, 10% glycerol, and1% SDS) supplemented with 1mM dithiothreitol following a phosphate-buffered saline (PBS) rinse. Cell extracts were analyzed with SDS-PAGE, electroblotted to polyvinylidene difluoride (PVDF) membrane (Millipore) and probed with the corresponding primary antibody for 1 hour at room temperature or overnight at 4 °C. The secondary antibody specific to primary antibody species conjugated with HRP were applied at room temperature for 1 hour.
Millipore), anti-HIF-1α Hyp564 (D43B5, Cell Signaling), anti-HIF-1α HyN803 (a generous […]
Abcam). Details of antibodies used are given in Tian et al.17 Detection of signal was achieved […]
unless otherwise stated) either with film or ChemiDoc MP (BIO-RAD) imaging system. TM Quantification of the immunobloting signal was performed with Image Lab software from […]

[5] = isolated recombinant enzyme, 1 μM, read-out: IC50 OGFOD1

SMILES	IC50 [1, 5]	IC50 ([2]; read-out: IC50 JARID1A (KDM5A))	IC50 ([3]; read-out: IC50 JARID1C (KDM5C))	IC50 [1]	IC50 [2]	IC50 [3]	time at which HIF-1α level saturated ([4]; 10 μM)	time at which HIF-2α level saturated ([4]; 10 μM)	time at which HIF-2α level saturated ([4]; 2.5 μM)	concentration from which dose-dependent HIF-1α stabilization was clear ([4]; up to 6 hours)
Cc1nc(C(=O)NCC(=O)O)c(O)c2ccc(Oc3ccccc3)cc12 [FG-4592]	< 1 µM	> 100 µM	> 100 µM							
O=C(O)CNC(=O)C1C(=O)N(C2CCCCC2)C(=O)N(C2CCCCC2)C1=O [GSK1278863]				2.1 µM	> 100 µM	> 100 µM	3 h	3 h		
CC(C)(C)OC(=O)c1ccc(-n2[nH]cc(-n3ccnn3)c2=O)nc1 [IOX4]	< 1 µM	53 µM	97 µM				3 to 6 h	3 to 10 h	1 h	
O=c1c(-n2ccnn2)c[nH]n1-c1cc(N2CCOCC2)ncn1 [Molidustat]	5.1 µM	> 100 µM	> 100 µM				after the first hour	after the first hour	1 h	
O=C(O)CNC(=O)c1ncc(-c2cccc(Cl)c2)cc1O [Vadadustat]	1.4 µM	> 100 µM	> 100 µM							≥ 50 µM
